Values quoted from earlier work as cited in patent publication US20080255231A1, “POLYMORPHS OF RIVASTIGMINE HYDROGENTARTRATE” (priority 2007, published 2008).

SMILES: CCN(C)C(=O)Oc1cccc([C@H](C)N(C)C)c1 [Rivastigmine hydrogentartrate, [3-[α-(Dimethylamino)-ethyl]phenyl]-N-methylethylcarbamate hydrogentartrate]
- solubility in acetonitrile (acetonitrile): soluble
- solubility in ethanol (ethanol): soluble
- solubility in ethyl acetate (ethyl acetate): very slightly soluble
- solubility in n-octanol (n-octanol): slightly soluble
- solubility in water (water): very soluble
